From patent publication US20240426807A1, “SCREENING SYSTEM” (Givaudan SA, priority 2021, published 2024) come the findings set out here.

In assay [1] the target is T1, pool of cells with OR5A1, OR5A2, OR5AN1, OR6Y1, OR10G4, OR10G7 or OR10G9 (Homo sapiens, UniProt Q8NGN6).
T1 construct: expressed in transfected cells; host or cells: HEK293T stably expressing RTP1S and RTP2; 7 separate transfections pooled
T1 sequence (Q8NGN6 1-311): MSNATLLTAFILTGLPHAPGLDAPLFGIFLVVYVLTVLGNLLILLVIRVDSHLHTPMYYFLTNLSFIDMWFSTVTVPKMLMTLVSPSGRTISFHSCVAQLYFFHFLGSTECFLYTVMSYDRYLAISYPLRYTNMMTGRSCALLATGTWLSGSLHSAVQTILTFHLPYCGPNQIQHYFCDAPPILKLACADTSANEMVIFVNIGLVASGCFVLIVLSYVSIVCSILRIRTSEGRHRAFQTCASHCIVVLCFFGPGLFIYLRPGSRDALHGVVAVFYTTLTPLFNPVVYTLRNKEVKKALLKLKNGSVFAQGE
The assay can be described thus: Selection of cognate-receptor cells from a pool of OR-expressing cells with the target ligand and puromycin. To be noted: 1 μM eugenol, puromycin 1 μg/ml, pool of 7 OR transfections. The assay is classed as cell-based. As for the experimental part: (§1) For many ligands the cognate OR receptors are not known (“orphan receptors”), or it is unknown among a pool of receptors, which one has the best affinity for a ligand of interest, e.g. a perfumery note of particular interest. Thus, the ligand-induced selection pressure can be used to enrich a specific OR-expressing cell from a pool of OR-expressing cells in the presence of a ligand of interest. HEK293T cells stably expressing RTP1S and RTP2 were seeded into 7 wells of 6-well plates at 330,000 cells/well.
(§2) The next day, the cells of each well were transfected with 2 μg of a PvuI-linearized pGL4.29-CRE-Puro-Hygro-OR construct harboring one of the receptors OR5A1 (NCBI Genbank Gene ID: 219982), OR5A2 (NCBI Genbank Gene ID: 219981), OR5AN1 NCBI Genbank Gene ID: 390195, SEQ ID NO: 70), OR6Y1 (NCBI Genbank Gene ID: 391112), OR10G4 (NCBI Genbank Gene ID: 390264, SEQ ID NO: 72), OR10G7 (NCBI Genbank Gene ID: 390265, SEQ ID NO: 71), or OR10G9 (NCBI Genbank Gene ID: 219870). 24 h after transfection, the cells of all 7 transfections were harvested and pooled. 350 cells of this pool of cells with different OR genes inserted were then seeded into each well of seven 96-well plates.
(§3) 3 days later, cells were stimulated with ligands for either OR5AN1 (10 μM musk ketone), OR10G7 (1 μM eugenol), or OR10G4 (100 μM vanitrope). One plate was treated with DMSO only. 6h after the addition of the OR ligands, puromycin was added to each plate at a final concentration of 1 μg/ml. On every day during the following week, the medium on all plates was replaced with fresh medium containing the corresponding ligand and puromycin. The plates were then searched for wells containing only a single colony of puromycin-resistant cells. The cells of those colonies were transferred to larger plates and grown until they had multiplied to about 8 Mio cells. The genomic DNA of 2 Mio cells of each clone were isolated using the Puregene kit according to the manufacturer's protocol. […]

Assay [2] deals with T2, pool of cells with OR5A1, OR5A2, OR5AN1, OR6Y1, OR10G4, OR10G7 or OR10G9 (Homo sapiens, UniProt Q8NGI8).
T2 construct: expressed in transfected cells; host or cells: HEK293T stably expressing RTP1S and RTP2; 7 separate transfections pooled
T2 sequence (Q8NGI8 1-311): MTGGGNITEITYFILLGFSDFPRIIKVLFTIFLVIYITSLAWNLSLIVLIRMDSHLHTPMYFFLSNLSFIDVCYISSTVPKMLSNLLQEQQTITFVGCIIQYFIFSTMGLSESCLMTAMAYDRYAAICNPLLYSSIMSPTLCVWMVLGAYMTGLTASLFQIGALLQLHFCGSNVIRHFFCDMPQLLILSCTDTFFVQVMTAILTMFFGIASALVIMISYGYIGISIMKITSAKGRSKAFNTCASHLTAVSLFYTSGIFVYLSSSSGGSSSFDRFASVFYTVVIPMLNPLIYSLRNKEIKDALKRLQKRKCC
Described as above. The format is cell-based. The settings on record: 10 μM musk ketone, puromycin 1 μg/ml, pool of 7 OR transfections. The method, then:
as §1, §2, §3

On to `C=CCc1ccc(O)c(OC)c1` [eugenol], for which the “clones selected with the ligand that contained OR10G7” value in assay [1] is on record as 8 out of 8.

On to `CC(=O)c1c(C)c([N+](=O)[O-])c(C(C)(C)C)c([N+](=O)[O-])c1C` [musk ketone], for which, in assay [2], the “clones selected with the ligand that contained OR5AN1” value came to 9 clones.
